Test results as given in patent US10894040B2, “S1P modulating agents” (BIOGEN MA INC., priority 2011, dated 2021).

System: A2B5+ OPCs
Assay: OPC differentiation assay
Assay type: cell-based, Sprague Dawley rats
Conditions: 3-day incubation; for activity in the OPC assay at 2 micromolar / activity in the OPC assay at 20 micromolar: symbols not defined in the patent; for EC50: Rattus norvegicus, 72 h, MSD analysis
Procedure: OPC Differentiation Assay
Enriched populations of oligodendrocytes were grown from post-natal day 2 (P2) female Sprague Dawley rats. The forebrain was dissected out and placed in Hank's buffered saline solution (HBSS; Invitrogen, Grand Island, N.Y.). The tissue was cut into 1 mm fragments and incubated at 37° C. for 15 minutes in 0.01% trypsin and 10 μg/mL DNase. Dissociated cells were plated on poly-L-lysine-coated T75 tissue culture flasks and grown at 37° C. for 10 days in Dulbecco's modified Eagle's medium (DMEM) with 20% fetal calf serum (Invitrogen). A2B5^+ OPCs were collected by shaking the flask overnight at 200 rpm and 37° C., resulting in a 95% pure population.
For the differentiation assay, 2 μM and 20 μM antagonist or the same concentrations of vehicle (DMSO) were applied to OPCs cultured in CNTF/T3 containing media. After a 3-day incubation, […], cell were lysed and then subjected to MSD (Meso Scale Discovery-R) analysis. EC50 was calculated by Prism using a nonlinear sigmoidal dose-response curvecells. Alternatively, cells were lysed in 80 μL lysis buffer (50 mM HEPES [4-(2-hydroxyethyl)-1-piperazineethanesulfonic acid], pH 7.5, 150 mM NaCl, 1.5 mM MgCl2, 1 mM ethylene glycol tetraacetic acid [EGTA], 1% Triton X-100 and 10% glycerol) for 30 minutes at 4° C. After centrifugation at 14,000 g for 15 minutes, the supernatants were boiled in Laemmli sample buffer, subjected to 4-20% SDS-PAGE, and analyzed by Western blotting with anti-MBP, anti-myelin-associated glycoprotein (MAG), or anti-beta actin antibodies. The secondary antibodies used were anti-mouse IgG-HRP (horseradish peroxidase) and anti-rabbit IgG-HRP respectively.

Row | EC50 [µM] | SMILES | activity in the OPC assay at 2 micromolar | activity in the OPC assay at 20 micromolar
1 | < 10 | CCCCC1CCC(Oc2ccc3cc(CN4CCC(C(=O)O)CC4)ccc3c2)CC1 (mixture of isomers) [Example 32, 1-((6-(4-Butylcyclohexyloxy)naphthalen-2-yl)methyl)piperidine-4-carboxylic acid] | + to ++++ | + to ++++
2 |  | CC(C)(C)[C@H]1CC[C@H](Oc2ccc3nc(CN4CCC(C(=O)O)CC4)ncc3c2)CC1 [Example 15, 1-((6-(trans-4-tert-Butylcyclohexyloxy)quinazolin-2-yl)methyl)piperidine-4-carboxylic acid] | + to ++++ | 
3 | < 10 | CC(C)(C)[C@H]1CC[C@H](Oc2ccc3cc(C(N4CCC(C(=O)O)CC4)C(F)(F)F)ccc3c2)CC1 (stereo partly drawn) [Example 22, 1-(1-(6-(trans-4-tert-Butylcyclohexyloxy)naphthalen-2-yl)-2,2,2-trifluoroethyl)piperidine-4-carboxylic acid] | + to ++++ | + to ++++
4 | < 10 | CC(C)C1CCC(Oc2ccc3cc(CN4CCC(C(=O)O)CC4)ccc3c2)CC1 (centres unmarked) [Example 24, 1-((6-(4-Isopropylcyclohexyloxy)naphthalen-2-yl)methyl)piperidine-4-carboxylic acid] |  | 
5 | < 10 | CC(C)(C)[C@H]1CC[C@@H](Oc2ccc3cc(CN4CCC(C(=O)O)CC4)ccc3c2)CC1 [Example 26, 1-((6-(cis-4-tert-Butylcyclohexyloxy)naphthalen-2-yl)methyl)piperidine-4-carboxylic acid] |  | + to ++++
6 | < 10 | CCC1CCC(Oc2ccc3cc(CN4CCC(C(=O)O)CC4)ccc3c2)CC1 (centres unmarked) [Example 30, 1-((6-(4-Ethylcyclohexyloxy)naphthalen-2-yl)methyl)piperidine-4-carboxylic acid] | + to ++++ | + to ++++
7 |  | O=C(O)C1CCN(Cc2ccc3cc(OC4CCC5(CCCC5)CC4)ccc3c2)CC1 [Example 34, 1-((6-(Spiro[4.5]decan-8-yloxy)naphthalen-2-yl)methyl)piperidine-4-carboxylic acid] |  | + to ++++
8 |  | CC[C@H]1CC[C@@H](Oc2ccc3cc(CN4CCC(C(=O)O)CC4)ccc3c2)CC1 [Example 36, 1-((6-(cis-4-Ethylcyclohexyloxy)naphthalen-2-yl)methyl)piperidine-4-carboxylic acid] | + to ++++ | + to ++++
9 |  | CC[C@H]1CC[C@H](Oc2ccc3cc(CN4CCC(C(=O)O)CC4)ccc3c2)CC1 [Example 38, 1-((6-(trans-4-Ethylcyclohexyloxy)naphthalen-2-yl)methyl)piperidine-4-carboxylic acid] |  | + to ++++
10 | < 10 | CC(C)(C)[C@H]1CC[C@H](Oc2ccc3nc(CN4CCC(C(=O)O)CC4)ccc3c2)CC1 [Example 42, 1-((6-(trans-4-tert-Butylcyclohexyloxy)quinolin-2-yl)methyl)piperidine-4-carboxylic acid] | + to ++++ | + to ++++
11 |  | CC(C)(C)[C@H]1CC[C@H](Oc2ccc3cc(C(=O)N4CCC(C(=O)O)CC4)ccc3c2)CC1 [Example 48, 1-(6-(trans-4-tert-Butylcyclohexyloxy)-2-naphthoyl)piperidine-4-carboxylic acid] | + to ++++ | + to ++++
12 |  | CC(C)(C)C1CCC(=Cc2ccc3cc(CN4CCC(C(=O)O)CC4)ccc3c2)CC1 (centres unmarked) [Example 52, 1-((6-((4-tert-Butylcyclohexylidene)methyl)naphthalen-2-yl)methyl)piperidine-4-carboxylic acid] |  | + to ++++
13 |  | CC(C)(C)[C@H]1CC[C@H](Oc2ccc3cc(CN4CCC(C(=O)O)CC4)ccc3n2)CC1 [Example 55, 1-((2-(trans-4-tert-Butylcyclohexyloxy)quinolin-6-yl)methyl)piperidine-4-carboxylic acid] | + to ++++ | 
14 |  | CCC1(C(=O)O)CCN(Cc2ccc3cc(O[C@H]4CC[C@H](C(C)(C)C)CC4)ccc3c2)CC1 [Example 56, 1-[6-(4-tert-Butyl-cyclohexyloxy)-naphthalen-2-ylmethyl]-4-ethyl-piperidine-4-carboxylic acid] | + to ++++ | 
15 |  | CCCC1(C(=O)O)CCN(Cc2ccc3cc(O[C@H]4CC[C@H](C(C)(C)C)CC4)ccc3c2)CC1 [Example 57, 1-[6-(4-tert-Butyl-cyclohexyloxy)-naphthalen-2-ylmethyl]-4-propyl-piperidine-4-carboxylic acid] | + to ++++ | + to ++++
16 | < 10 | CC1CN(Cc2ccc3cc(O[C@H]4CC[C@H](C(C)(C)C)CC4)ccc3c2)CCC1C(=O)O (some centres unmarked) [Example 58, 1-[6-(4-tert-Butyl-cyclohexyloxy)-naphthalen-2-ylmethyl]-3-methyl-piperidine-4-carboxylic acid] | + to ++++ | + to ++++
17 |  | CC(C)(C)[C@H]1CC[C@H](Oc2ccc3cc(CN4CCC(C(=O)O)(c5ccccc5)CC4)ccc3c2)CC1 [Example 59, 1-[6-(4-tert-Butyl-cyclohexyloxy)-naphthalen-2-ylmethyl]-4-phenyl-piperidine-4-carboxylic acid] | + to ++++ | 
18 | < 10 | CC(C)(C)[C@H]1CC[C@H](Oc2ccc3cc(CN4CCCC(C(=O)O)CC4)ccc3c2)CC1 (some centres unmarked) [Example 60, 1-[6-(4-tert-Butyl-cyclohexyloxy)-naphthalen-2-ylmethyl]-perhydro-azepine-4-carboxylic acid] | + to ++++ | 
19 | < 10 | CC(C)(C)[C@H]1CC[C@H](Oc2ccc3cc(CN4CCC(O)(C(=O)O)CC4)ccc3c2)CC1 [Example 61, 1-[6-(4-tert-Butyl-cyclohexyloxy)-naphthalen-2-ylmethyl]-4-hydroxy-piperidine-4-carboxylic acid] | + to ++++ | + to ++++
20 |  | CC(C)(C)[C@H]1CC[C@H](Oc2ccc3cc(CN4CCC(CC(=O)O)CC4)ccc3c2)CC1 [Example 62, {1-[6-(4-tert-Butyl-cyclohexyloxy)-naphthalen-2-ylmethyl]-piperidin-4-yl}-acetic acid] | + to ++++ | + to ++++
21 |  | CC(C)(C)[C@H]1CC[C@H](Oc2ccc3cc(CN4CCC(C(=O)O)CC4)ncc3c2)CC1 [Example 75, 1-[7-(trans-4-tert-Butyl-cyclohexyloxy)-isoquinolin-3-ylmethyl]-piperidine-4-carboxylic acid] | + to ++++ | + to ++++
22 | < 10 | CC1(C(=O)O)CCN(Cc2ccc3cc(O[C@H]4CC[C@H](C(C)(C)C)CC4)ccc3c2)CC1 [Example 77, 1-((6-(trans-4-tert-Butylcyclohexyloxy)naphthalen-2-yl)methyl)-4-methylpiperidine-4-carboxylic acid] | + to ++++ | + to ++++
23 |  | O=C(O)C1CCN(Cc2ccc3cc(OC4CCCCCC4)ccc3c2)CC1 [Example 81, 1-((6-(cycloheptyloxy)naphthalen-2-yl)methyl)piperidine-4-carboxylic acid] |  | + to ++++
24 |  | O=C(O)C1CCN(Cc2ccc3cc(OC4CCOCC4)ccc3c2)CC1 [Example 83, 1-((6-(tetrahydro-2H-pyran-4-yloxy)naphthalen-2-yl)methyl)piperidine-4-carboxylic acid] | + to ++++ | + to ++++
25 |  | O=C(O)C1CCN(Cc2ccc3cc(OC4CCC5(CCCCC5)CC4)ccc3c2)CC1 [Example 85, 1-((6-(spiro[5.5]undecan-3-yloxy)naphthalen-2-yl)methyl)piperidine-4-carboxylic acid] | + to ++++ | + to ++++
26 |  | O=C(O)C1CCN(Cc2ccc3cc(OC4CCC5(CCC5)CC4)ccc3c2)CC1 [Example 87, 1-((6-(spiro[3.5]nonan-7-yloxy)naphthalen-2-yl)methyl)piperidine-4-carboxylic acid] |  | + to ++++
27 |  | CC(C)(C)[C@H]1CC[C@H](Oc2ccc3cc(CN4CCCCC4C(=O)O)ccc3c2)CC1 (some centres unmarked) [Example 88, 1-[6-(4-tert-Butyl-cyclohexyloxy)-naphthalen-2-ylmethyl]-piperidine-2-carboxylic acid] | + to ++++ | 
